# Assay results published in US7871981B2, “Inhibition of cell motility, angiogenesis, and metastasis” (The United States of America as represented by the …, priority 1999, dated 2011).
# What was measured:
# TAC-2 cells = experiment: Epithelial tube formation assay, TAC-2 cells in collagen gels; assay type: cell-based
# Experimental: TAC-2 cells were suspended in three-dimensional collagen gels at 1×10^4 cells/ml in collagen and incubated in complete medium containing HGF and/or Grb2 inhibitors as indicated. After 3 days, the cultures were fixed with 2.5% glutaraldehyde in 0.1 M cacodylate buffer, and at least 3 randomly selected fields per experimental condition in each of 3 separate experiments were digitally recorded with brightfield microscopy. The total length of the cords in each individual colony present in each optical field was measured with IPLab. Cord length was considered as “0” in: a) colonies with a spheroidal shape, and b) slightly elongated structures in which the length to diameter ratio was less than 2. The mean values for each experimental condition were compared to controls using the Student's unpaired t-test. Results in FIG. 5 are described as mean total cord length (in μm) per field.
# HMVE cells = experiment: HMVE cell migration, modified Boyden chamber; assay type: cell-based, human
# Experimental: (§1) The migration assay of HUVE and HMEC-1 cells in modified Boyden chambers was adapted from previously described procedures (Murohara et al., Thromb. Vasc. Biol., 19: 1156-61 (1999), Malinda et al., FASEB J., 13: 53-62 (1999)). In brief, Biocoat Cell Environment control inserts (8 micron pore size; Becton Dickinson) were coated with 0.1% gelatin (Sigma) for at least 1 hour at 37° C. and air dried. Lower chambers contained 0.7 ml RPMI+0.1% BSA, to which 20 ng/ml HGF and/or 300 nM Grb2 inhibitors were added. Cells were pre-treated with the indicated concentrations of Grb2 inhibitors for 18-24 hours, trypsinized, washed twice in RPMI+0.1% BSA, added to upper chambers (5×10^4 cells/well) with or without inhibitors in a final volume of 0.5 ml, and incubated for 4 h at 37° C. Cells on the upper surface of each filter were removed with a cotton swab, while cells that had traversed to the bottom surface of the filter were fixed and stained using Diff-Quik (Dade Diagnostics) and counted using a 10× objective. Mean values from 4 randomly selected fields (1×1.4 mm) were calculated for each of triplicate wells per experimental condition. Shown in FIG. 6 is the ratio of growth factor-treated to control migrating cells designated on the y-axis as “Migration (Fold Increase)” or as the mean number of cells per optical field in FIGS. 8-11.
# HUVE cells = experiment: HUVE cell proliferation; assay type: cell-based, human
# Experimental: HUVE or HMVE cells were seeded per triplicate in type I collagen-coated 48-well plates (Biocoat) (3000 cells/well) in […] of complete EGM-Bullet Kit medium (BioWhittaker, Walkersville, Md.), allowed to attach for 4 hr and incubated overnight with or without the indicated concentrations of peptide 2. The cultures were rinsed twice in serum-free medium and incubated with EBM medium (BioWhittaker) supplemented with 50 μg/ml heparin, 50 μg/ml ascorbic acid and 10% FCS. After either 4 days (HUVE) or 5 days (HMVE), cells were harvested with trypsin/EDTA and counted with an hemocytometer. The mean number of cells per ml was calculated from 3 independent measures for each of triplicate wells per experimental condition and compared to controls using the Student's unpaired t-test. Results set forth in FIG. 12 are described as the ratio of growth factor-treated to control proliferating cells designated on the y-axis as “Proliferation (Fold Increase)”.
# NIH 3T3 fibroblasts = experiment: NIH 3T3 fibroblast migration, modified Boyden chamber; assay type: cell-based
# Experimental: as §1
# PDGF is implicated in different biological processes such vascular remodeling, wound healing and cancer (for reviews, see Bornfeldt et al., Ann N Y Acad. Sci., 766:416-30, 1995; Gendron, Surv. Ophthalmol., 44:184-5, 1999). Addition of 50 ng/ml PDGF-BB to NIH 3T3 fibroblasts incubated in a modified Boyden chamber results in a dramatic, 20-fold increase in cell migration. […] This observation opens a potential therapeutical use of the Grb2 inhibitor compounds in the treatment of diseases such as cancer, wound healing disorders, vascular complications of diabetes mellitus, vascular nephropathies, and diseases with occurrence of fibrosis.
# B16-luc cells = experiment: Tail vein model (induced metastasis), B16-luc, bioluminescence imaging; assay type: in vivo, SCID/beige mice; details: single 24 h pre-treatment, three week period
# Experimental: B16-luc cells were pre-treated for 24 hrs with 1 micromolar C90, then trypsinized, washed in PBS and spun down at 650 rpm to be resuspended in HBSS at the appropriate cell density for injection (1×10^6 cells). Injection was boosted with 10 micromolar C90. Cell where then injected in the dorsal tail vein of severe combined immunodeficient (SCID)/beige mice (Taconic Inc., Germantown, N.Y.).
# Cells prepared for xenograft injections were pretreated with C-90 for 24 h. Cells were injected in to mice (5 per group) by either tail vein (B16-luc, induced metastasis model) or subcutaneously (PC3M-luc, spontaneous metastasis model). Imaging of the PC3M cell metastases in lungs ex vivo (FIG. 14A)) correlated with earlier scans of intact animals (data not shown). Units are proportional to photons emitted within a defined time interval (total flux).
structure (smiles),measurement,setting,value
"NC(=O)C[C@H](NC(=O)C1(NC(=O)[C@H](Cc2ccc(C(C(=O)O)C(=O)O)cc2)NC(=O)C(=O)O)CCCCC1)C(=O)NCCCc1cccc2ccccc12 [peptide 2, (N-oxalyl-4-malonyl)-Phe-Ac6c-Asn-NH-(3-naphthalen-1-yl-propyl)]",HGF-induced elongation of epithelial tubes (cord length),"TAC-2 cells; HGF 20 ng/ml, 3 days",significantly (p<0.0001) abrogate
same,concentration at which a sub-maximal inhibitory effect is already observed,TAC-2 cells; HGF-induced tube elongation,30 nM
same,VEGF-induced cell migration,HMVE cells; VEGF,significantly (p<0.001) reverted
same,cell migration induced by HGF,"HMVE cells; peptide 300 nM, HGF 0-50 ng/ml",abolished
same,abolition of the effect of the optimal concentration of bFGF,"HMVE cells; peptide 300 nM, bFGF 5 ng/ml",72%
same,biphasic stimulatory activity of bFGF on migration,"HMVE cells; peptide 300 nM, bFGF 0.2-50 ng/ml",significantly (p<0.001) inhibited
same,HGF- VEGF-induced HUVE cell proliferation,HUVE cells; peptide 30 nM,failed to significantly (p=0.05) inhibit
same,bFGF-dependent HUVE cell proliferation,"HUVE cells; peptide 30 nM, p<0.0001",inhibited
same,serum-dependent HUVE cell proliferation,"HUVE cells; peptide 30 nM, p<0.001",inhibited
same,HGF- VEGF-induced HUVE cell proliferation (cell counts),HUVE cells; peptide 300 nM,significant (p<0.0001) reduction in cell counts
same,PDGF-BB-induced NIH 3T3 cell migration,NIH 3T3 fibroblasts; co-added with PDGF-BB 50 ng/ml,"inhibits NIH 3T3 cell migration in a significant (p<0.001), dose-dependent manner"
same,reduction in the mean number of cells per field,"NIH 3T3 fibroblasts; peptide 30 nM, PDGF-BB 50 ng/ml",60%
same,ability to form lung metastases relative to untreated control cells,B16-luc cells,significantly reduced ability to form lung metastases
